Data from US6495594B2, “Biologically active analogs of discodermolide” (Harbor Branch Oceanographic Institution, Inc., priority 2000, dated 2002).
“Also recorded” adds a separate entry of the source.

Key:
[1] = see U.S. Pat. No. 6,127,406; cited from earlier work
A549 human lung cells = assay: Cell cycle progression by flow cytometry; format: cell-based; details: for Cell cycle effects (100 nM): 24 hr, A549
Experimental: Cell cycle studies were initiated in order to pinpoint a specific phase within the cell cycle in which discodermolide analogs were exerting their antiproliferative effect. A549 human lung cells were used as cell cycle targets to compare the effects of discodermolide and discodermolide analogs on perturbation of the cell cycle. Cell cycle analyses were performed as follows: A549 cells were incubated at 37° C. in 5% CO2 in air in the presence or absence of varying concentrations of discodermolide or discodermolide analogs for 24 hr. Cells were harvested, fixed in ethanol, washed, and stained with 0.02 mg/mL of propidium iodide (P.I.) together with 0.1 mg/mL of RNAse A. Stained preparations were analyzed on a Coulter EPICS ELITE flow cytometer with 488 nm excitation. Fluorescence measurements and resulting DNA histograms were collected from at least 10,000 P.I. stained cells at an emission wavelength of 690 nm. Raw histogram data was further analyzed using a cell cycle analysis program (Multicycle, Phoenix Flow Systems).

[2] = system: A549 human adenocarcinoma tumor cells; assay: Microtubule bundling patterns in tumor cells by immunofluorescence; format: cell-based; design: key to Microtubule bundling in A549 cells: −: no effect; +/−: minimal or questionable effect; +: weak effect; ++: strong effect; +++: very strong effect equivalent to discodermolide; details: for Microtubule bundling in A549 cells: subjective rating versus discodermolide, Table 12
Experimental: Discodermolide and discodermolide analogs were evaluated as to their effects on the morphology of the microtubule network of cells using mouse anti-alpha-tubulin monoclonal antibody.
On day one, 7×10^4 adherent A549 human adenocarcinoma tumor cells were cultured in TCM overnight at 37° C. in 5% CO2 on 22 mm^2 cover slips in 6-well microtiter plates. On day two, TCM was removed and replaced with 10-1000 nM discodermolide or analog in TCM or TCM without drug (control) and incubated overnight at 37° C. in 5% CO2. On day three, TCM was removed and cells attached to cover slips were fixed with a 3.7% formaldehyde solution in Dulbecco's PBS for 10 minutes at room temperature. Cells were permeabilized with a 2% Triton X-100 solution, 2 mL per well, for 5 minutes at room temperature and washed twice in Dulbecco's PBS prior to staining.
To each well containing cells attached to cover slips a 2 mL volume of mouse anti- alpha-tubulin monoclonal antibody (Cat# T-5168, Sigma Chemical Co., St. Louis, Mo.) diluted 1:1000 in Dulbecco's phosphate buffered saline (D-PBS) was added and the cells incubated at room temperature for 45 minutes. Cover slips were rinsed once with D-PBS. A 2 mL volume of goat-anti-mouse-IgG-FITC conjugated antibody (Cat# T-5262, Sigma Chemical Co., St. Louis, Mo.) diluted 1:1000 in D-PBS was added and the cells incubated at room temperature for 45 minutes. Cover slips were rinsed once in D-PBS and DNA was stained with 0.02 mg/mL propidium iodide together with 0.1 mg/mL of ribonuclease A (RNAse) A in D-PBS at 37° C. for 30 minutes. Cover slips were rinsed three times with sterile distilled water, air-dried and mounted on slides with SlowFade™ antifade solution (Molecular Probes, Eugene, Oreg.) and observed under the microscope using epifluorescence illumination for the presence of abnormal aster and microtubule bundle formations.

[3] = system: P388 murine leukemia cell lines; assay: In vitro proliferation of P388 cells (MTT); format: cell-based; details: 48-h exposure; for IC50: value in parentheses
Experimental: Discodermolide and discodermolide analogs were analyzed as to their effects on proliferation of A549 human adenocarcinoma and P388 murine leukemia cell lines. P388 cells were obtained from Dr. R. Camalier, National Cancer Institute, Bethesda, MD, and A549 cells were obtained from American Type Culture Collection, Rockville, MD. All cell lines were maintained in tissue culture medium (TCM; Roswell Park Memorial Institute RPMI 1640 supplemented with 100 U/mL penicillin, […], 60 […], 18 mM HEPES, 0.05 mg/mL gentamicin (Life Technologies, Gaithersburg, MD) and 10% fetal bovine serum) and cultured in plastic tissue culture flasks at 37° C. in humidified air containing 5% CO2. Stock cultures of P388 cells were subcultured 1:20 in fresh TCM every 2 to 3 days. Stock cultures of A549 cells were subcultured 1:10 every 3 to 4 days. To assess the antiproliferative effects of agents against the cells, 200 μL cultures (96-well tissue culture plates, Nunc, Denmark) were established at 1 ×10^5 cells/mL in TCM or TCM containing the test agent at 0.03-5.0 μg/mL. After 48-h exposures, P388 cells were enumerated using 3-[4,5-dimethylthiazol-2-yl]-2,5-diphenyltetrazolium bromide (MTT) as described in the literature (M. C. Alley, et al., Cancer Res. 48:589, 1988). A549 cells were enumerated in the same manner after 72 hours exposure. The results were expressed as percent inhibition compared to the negative (no drug) control. Positive drug controls of varying dilutions of 5-fluorouracil and adriamycin (Sigma Chemical Co., St Louis, MO) were included to monitor drug sensitivity of the cell line.
To quantitate the effects on cell proliferation and resulting IC50 values, 75 μL of warm growth media containing 5 mg/mL MTT is added to each well, cultures returned to the incubator, and left undisturbed for 3 hours. To spectrophotometrically quantitate formation of reduced formazan, plates are centrifuged (500×g, 10 minutes), culture fluids removed by aspiration, and 200 μL of acidified isopropanol (2 mL concentrated HCl /liter isopropanol) added per well. The absorbance of the resulting solutions is measured in a plate reader (TECAN Spectra SLT; TECAN U.S., Research Triangle Park, N.C.) at 570 nm and a 650 nm reference filter. The absorbance of test wells is divided by the absorbance of drug-free wells, and the concentration of agent that results in 50% of the absorbance of untreated cultures (IC50) is determined by linear regression of logit-transformed data (D. J. Finney, Statistical Method in Biological Assay, third ed., pp. 316-348, Charles Griffin Co., London, 1978). A linear relationship between tumor cell number and formazan production has been routinely observed over the range of cell densities observed in these experiments. The two standard drug controls (indicated above) are included in each assay as a check to monitor the drug sensitivity of each of the cell lines and IC50 values are determined for each drug-cell combination.

For `C=CC=CC(C)C(OC(N)=O)C(C)C(O)C(C)CC(C)=CC(C)C(O)C(C)C=CC(O)CC1OC(=O)C(C)C(OC(C)=O)C1C` (stereo not shown) [discodermolide-3-acetate], the “Cytotoxicity compared to the parent molecule” value [1] is given as “greater cytotoxicity”.
For `C=CC=CC(C)C(OC(N)=O)C(C)C(OC(C)=O)C(C)CC(C)=CC(C)C(O)C(C)C=CC(CC1OC(=O)C(C)C(OC(C)=O)C1C)OC(C)=O` (stereo not shown) [discodermolide-3,7,17-triacetate], the “Cytotoxicity compared to the parent molecule” value [1] is given as “dramatic reduction in the activity”.
In the case of `C=CC=CC(C)C(OC(N)=O)C(C)C(O)C(C)CC(C)=CC(C)C(OC(C)=O)C(C)C=CC(CC1OC(=O)C(C)C(OC(C)=O)C1C)OC(C)=O` (stereo not shown) [discodermolide-3,7,11-triacetate], the “Cytotoxicity compared to the parent molecule” value [1] is given as “reduced cytotoxicity”.
In the case of `C=CC=CC(C)C(OC(N)=O)C(C)C(O)C(C)CC(C)=CC(C)C(OC(C)=O)C(C)C=CC(O)CC1OC(=O)C(C)C(OC(C)=O)C1C` (stereo not shown) [discodermolide-3,11-diacetate], the “Cytotoxicity compared to the parent molecule” value [1] is given as “reduced cytotoxicity”.
In the case of `C=CC=CC(C)C(OC(N)=O)C(C)C(OC(C)=O)C(C)CC(C)=CC(C)C(OC(C)=O)C(C)C=CC(CC1OC(=O)C(C)C(OC(C)=O)C1C)OC(C)=O` (stereo not shown) [discodermolide-3,7,11,17-tetraacetate], the “Cytotoxicity compared to the parent molecule” value [1] is given as “dramatic reduction in the activity”.
For `C=CC=CC(C)C(OC(N)=O)C(C)C(OC(C)=O)C(C)CC(C)=CC(C)C(O)C(C)C=CC(O)CC1OC(=O)C(C)C(OC(C)=O)C1C` (stereo not shown) [discodermolide-3,17-diacetate], the “Cytotoxicity compared to the parent molecule” value [1] is given as “dramatic reduction in the activity”.
For `C=CC=CC(C)C(OC(N)=O)C(C)C(O)C(C)CC(C)=CC(C)C(O)C(C)C=CC(CC1OC(=O)C(C)C(O)C1C)OC(C)=O` (stereo not shown) [discodermolide-7-acetate], the “Cytotoxicity compared to the parent molecule” value [1] is listed as “greater cytotoxicity”.
In the case of `C=CC=CC(C)C(OC(N)=O)C(C)C(O)C(C)CC(C)=CC(C)C(O)C(C)C=CC(CC1OC(=O)C(C)C(OC(C)=O)C1C)OC(C)=O` (stereo not shown) [discodermolide-3,7-diacetate], the “Cytotoxicity compared to the parent molecule” value [1] is listed as “greater cytotoxicity”.
In the case of `CCCCC(C)C(OC(N)=O)C(C)C(OC(C)=O)C(C)CC(C)=CC(C)C(OC(C)=O)C(C)CCCCC1OC(=O)C(C)C(OC(C)=O)C1C` (stereo not shown) [7-deoxy-8,21,23-hexahydrodiscodermolide-3,11,17-triacetate], the Cell cycle effects (A549 human lung cells; 10 nM) is reported as “No cell cycle effects were noted”, the “Cell cycle effects (100 nM)” value (A549 human lung cells) is reported as “No cell cycle effects were noted” and the Cell cycle effects (A549 human lung cells; 1000 nM) is reported as “No cell cycle effects were noted”. The Microtubule bundling observation ([2]; 10 nM through 1000 nM) was “no bundling seen”, the “Microtubule bundling in A549 cells” value [2] was “−” and the “IC50 P388 cells” value [3] was greater than 5 µg/mL. It also gave an IC50 [3] greater than 7.5 µM.
For `C=CC=CC(C)C(OC(N)=O)C(C)C(O)C(C)CC(C)=CC(C)C(O)C(C)C=CC(CC1OC(=O)C(C)=CC1C)OC(=O)CCC(=O)O` (stereo not shown) [3-deoxy-2Δ-discodermolide-7-succinate], the Cell cycle effects (A549 human lung cells; 10 nM) was “indistinguishable from the untreated (control) cells”, the “Cell cycle effects (100 nM)” value (A549 human lung cells) was “indistinguishable from the untreated (control) cells” and the Cell cycle effects (A549 human lung cells; 1000 nM) was “indistinguishable from the untreated (control) cells”. For the same compound, the Cell cycle effects (A549 human lung cells; 3000 nM (highest concentration tested)) was “no cell cycle effects were noted; also recorded: slight induction of apoptosis and a general necrosis”, the Microtubule bundling observation ([2]; 10 nM) was “indistinguishable from that of the untreated (control) cells” and the Microtubule bundling observation ([2]; 100 nM) was “indistinguishable from that of the untreated (control) cells”. For the same compound, the Microtubule bundling observation ([2]; 1000 nM) was “no bundling”, the “Microtubule bundling in A549 cells” value [2] was “−” and the “IC50 P388 cells” value [3] was greater than 5 µg/mL. For the same compound, the IC50 [3] was greater than 7.41 µM.
